# Data from patent publication US5023359A, “Use of organic salts of copper for the treatment of honeybee's parasitic diseases” (priority 1990, dated 1991).
# Entries after “also recorded” stand apart in the source; their conditions may differ.
# Key:
# [1] = test system: honeybees; assay: Appetency of the honeybees (consumption of syrup in small cases, batches of 100 honeybees); format: in vivo; conditions: for Appetency, absolute value / Appetency, 1/1 COPPER GLUCONATE: with pollen, mean ± SD; for Appetency, absolute value: pure sugar syrup 21.13±6.31; for Appetency, 1/1 COPPER GLUCONATE: 1/1 with copper gluconate; for Appetency, RELATIVE VALUES / PURE SUGAR SYRUP, AVERAGE / Appetency, RELATIVE VALUES / PURE SUGAR SYRUP, TEST 1 / Appetency, RELATIVE VALUES / PURE SUGAR SYRUP, TEST 2: relative to pure sugar syrup; for Appetency, RELATIVE VALUES / PURE SUGAR SYRUP, AVERAGE: average of tests; for Appetency, RELATIVE VALUES / PURE SUGAR SYRUP, TEST 1: test 1 (first concentration tested); for Appetency, RELATIVE VALUES / PURE SUGAR SYRUP, TEST 2: test 2 (second concentration tested)
# Source text: It should be noted that the pollen has been made available to the honeybees in a sufficient amount inside the small cases, without being admixed to the syrup. The determinations have been performed every day and the length of the vertical bars of the diagrams hereabove, are proportional to the deviation of the observed results. They evidence a clearly higher […] case of the utilization of the compounds of this invention. […] The results of these tests are gathered in Table 7 hereinafter in which the figures correspond to measures performed on honeybees placed in small cases, having pollen to their disposal, and are means expressed in microliters per honeybee and per day for N countings.
# [2] = test system: honeybees; assay: Phagoinhibitive action on food intake by the honeybees (small cases, 100 honeybees, syrup with copper sulphate); format: in vivo; conditions: FIG. 1; absorption in ml/bee/day vs g/l copper sulphate
# Source text: The obtained results as shown under FIG. 1 have been obtained from studies carried out in the laboratory, on batches of 100 honeybees each, located in small coops called small cases (logettes) in the absence of queen bees. The feeding made available to the honeybees, is placed in a graduated tube which allows the measurement of the ingested amount every day. The experiments have been carried out simultaneously with various small cases each receiving for the feeding of the honeybees a syrup of sucrose at 2 kg for 1 l water (i.e. 66% weight/weight) containing variable amounts of copper sulphate.
# [3] = Solubility in water; conditions: for water solubility: 20° C.
# [4] = test system: honeybees; assay: Biological activity / metabolism of honeybees and productivity of hives; conditions: in vivo
# [5] = test system: honeybees; conditions: in vivo
# Experimental: The determination of the amounts of copper inside the bodies of the honeybees is performed through atomic absorption on samples of 5 honeybees after crushing and centrifuging them, and analysis of the supernatant liquid.
# [6] = test system: Trehalases; assay: Activity of trehalases in the hemolymph of honeybees after ingestion; format: in vivo; conditions: FIGS. 8A-8D, 9A-9B, 10B, listed as copper glyconate
# Source text: (§1) These diagrams evidence the action of copper glyconate on the glycosemia of the honeybees after ingestion of increasing doses of this product.
# (§2) FIG. 9A corresponds to experiments performed without administration of an inhibitor of trehalases
# (§3) FIG. 9B is with administration of such an inhibitor.
# (§4) FIG. 10A further evidences the variation of the glucosemia in the honeybees following the ingestion of copper glyconate.
# [7] = test system: glycosemia in the honeybees; assay: Glycosemia / glucose in the hemolymph of honeybees after ingestion; format: in vivo; conditions: FIGS. 8A-8D, 9A-9B, 10A
# Source text: as §1, §2, §3, §4
# [8] = test system: Varroa jacobsoni; assay: Action against Varroa jacobsoni in full-size hives: counting of fallen/remaining Varroas, efficiency; format: in vivo; conditions: for FALL OF THE VARROAS: 4 hives, mean ± SD
# Experimental: Each hive was provided at its lower part with a plastic plate coated with a consistent grease. Each day at the same time, the plate was discarded and the counting of the Varroas fallen on the plate, was carried out. A grid surmounting this plate avoid that the honeybees may spontaneously proceed with the discharge of the Varroas.
# The results shown in FIG. 2 have been obtained following experiments performed at full size in hives containing from 20,000 to 50,000 honeybees.
# 2°--The efficiency of the treatment has been defined as the ratio between the number of Varroas subsiding in the various colonies of an apiary after treatment by solutions at various concentrations, and the number of Varroas contained in the control hives, these two figures have been measured after treatment with Amitraze.
# This experiment has been carried out in a series of 14 hives and the result thereof are compiled in the Table 3 figuring herein after.
# These experiments allow to obtain the results of Table 3 above, and were carried out in full size on a set of 14 hives.
# Measurements of the falls of the Varroas have been performed, at first, every day then every three days starting from the initiation of the delivery of the syrup.
# To this end, a plate coated with a consistent grease was arranged at the bottom of each hive and protected with a grid as above-mentioned, in order to allow the counting of the Varroas. The fall begins to be significative in relation to the control hives which have only been given pure sugar syrup, after absorption by the honeybees of 3 liters of syrup per hive in 10 days.
# The counting of the remaining Varroas has been performed 2 days after the last delivery of syrup while submitting each hive to a treatment of shock by means of an acaricide (in these circumstances the marketed composition sold under the Tread Name AMITRAZE).
# The averages and the standard deviations have been calculated for the number of performed measures corresponding to the number of hives, this figure being mentioned between hyphens following the figures of the third column in Table 3.
# [9] = test system: honeybees; assay: Acceptance of treated syrup by honeybees in full-size hives; format: in vivo; conditions: syrup of sucrose 66% w/w with copper gluconate
# [10] = test system: honeybees; assay: Lethality / noxiousness for the honeybees; conditions: 6.75 l of syrup per hive, 0.02 to 0.5 g/l copper gluconate
Molecule,"Appetency, absolute value ([1]; 0,44 M.M.)","Appetency, absolute value ([1]; 1,1 M.M.)","Appetency, 1/1 COPPER GLUCONATE [1]","Appetency, RELATIVE VALUES / PURE SUGAR SYRUP, AVERAGE [1]","Appetency, RELATIVE VALUES / PURE SUGAR SYRUP, TEST 1 [1]","Appetency, RELATIVE VALUES / PURE SUGAR SYRUP, TEST 2 [1]","supplemental effects: production of honey, activity of cleaning the hives [4]",other results
NCC(=O)[O-].NCC(=O)[O-].[Cu+2] [Copper glycinate],"16,65 ± 5,01 microliters per honeybee and p","15,5 ± 5,03 microliters per honeybee and p","14,30 ± 3,52 microliters per honeybee and p","75,85%","78,0%","73,7%",,
CC(O)C(=O)[O-].CC(O)C(=O)[O-].[Cu+2] (stereo not drawn) [Copper lactate],"15,30 ± 4,24 microliters per honeybee and p","15,60 ± 4,34 microliters per honeybee and p","10,95 ± 3,54 microliters per honeybee and p","73,6%","72,4%","73,8%",,
O=S(=O)([O-])[O-].[Cu+2] [copper sulphate],,,,,,,,phagoinhibitive (anorectic) action on food intake [2]: phagoinhibitive action
COPPER CITRATE,"14,71 ± 4,25 microliters per honeybee and p","12,67 ± 3,96 microliters per honeybee and p","12,67 ± 3,96 microliters per honeybee and p","64,75%","69,5%","60,0%",,
Copper 1-aspartate,,,,"55,1%","76,5%","69,4%",,"Appetency, absolute value ([1]; 0,61 M.M.): 17,96 ± 7,20 microliters per honeybee and p; Appetency, absolute value ([1]; 1,54 M.M.): 14,68 ± 5,40 microliters per honeybee and p; Appetency, absolute value ([1]; 2,4 M.M.): 12,49 ± 5,11 microliters per honeybee and p"
Copper 1-glutamate,"16,18 ± 4,66 microliters per honeybee and p","16,64 ± 7,97 microliters per honeybee and p","11,56 ± 6,32 microliters per honeybee and p","77,6%","76,5%","78,7%",,
Copper Asparaginate,"15,48 ± 4,32 microliters per honeybee and p","11,97 ± 3,34 microliters per honeybee and p","12,21 ± 4,29 microliters per honeybee and p","65,0%","73,2%","56,3%",,"water solubility [3]: 0,5%"
Copper glucoheptonate,"15,68 ± 2,35 microliters per honeybee and p","14,58 ± 3,16 microliters per honeybee and p","14,90 ± 3,64 microliters per honeybee and p","71,6%","74,2%","69,0%",A similar effect has been shown,water solubility (in words) [3]: very soluble
Copper gluconate,"22,3 ± 2,5 microliters per honeybee and p","21,2 ± 2,6 microliters per honeybee and p",,,,,increases the production of honey,"storage of copper inside the body of the honeybees [5]: does not incur any storage of copper inside the body of the honeybees; activity / concentration of trehalases in the hemolymph [6]: increase of the activity of the Trehalases; also recorded: increase in the concentration of glucose and trehalases in the hemolymph; glycosemia / concentration of glucose in the hemolymph of the honeybees [7]: a momentaneous and significative increase of the glycosemia in the honeybees; glycosemia / concentration of glucose in the hemolymph of the honeybees ([7]; listed as copper glyconate): increase in the concentration of glucose; supplemental effects: production of honey, activity of cleaning the hives ([4]; listed as copper glyconate): increase in the activity of cleaning the hives; appetency of the honeybees (in words) ([1]; sucrose syrup 66% w/w, FIGS. 7A-7C, comparison with copper sulphate): great appentency of the honeybees; FALL OF THE VARROAS ([8]; 0,2 g/l copper gluconate in syrup): 165,5 ± 84,1; FALL OF THE VARROAS ([8]; 0,5 g/l copper gluconate in syrup): 207 ± 172; FALL OF THE VARROAS ([8]; 1 g/l copper gluconate in syrup): 109 ± 141; destroying of the Varroas (in words) ([8]; in vivo): efficient even at low doses; syrup absorbed per hive when fall of Varroas begins to be significative vs control hives ([8]; per hive, in 10 days): 3 L; ingestion of the syrup by the honeybees in hives [9]: The whole amount of syrup made available to the honeybees was absorbed every day; also recorded: totally ingested; percentage of lethality in the honeybees compared to controls [10]: no increase in the percentage of lethality in the honeybees"
Copper gluconate/glucoheptonate,,,,,,,A similar effect has been shown,
Copper gluconate/glutamate,,,,,,,A similar effect has been shown,
Copper isoleucinate,,,,"71,55%","78,9%","64,2%",,"Appetency, absolute value ([1]; 0,61 M.M.): 16,69 ± 5,03 microliters per honeybee and p; Appetency, absolute value ([1]; 1,54 M.M.): 13,57 ± 5,77 microliters per honeybee and p; Appetency, absolute value ([1]; 2,4 M.M.): 13,79 ± 5,73 microliters per honeybee and p; water solubility [3]: 1%"
Copper leucinate,"15,83 ± 4,53 microliters per honeybee and p","13,02 ± 2,42 microliters per honeybee and p","13,02 ± 2,42 microliters per honeybee and p","67,8%","74,0%","61,6%",,water solubility [3]: 1%
